Results published in patent US9717719B2, “Treatment, prevention, and reversal of alcohol-induced liver disease” (Rhode Island Hospital, priority 2006, dated 2017).
Entries after “also recorded” stand apart in the source; their conditions may differ.

Assays:
Format in all cases: in vivo, rat
Long Evans rats = test: Liver histology in the chronic ethanol exposure model; settings: for extents of micro- and macrosteatosis / liver histology (hepatic architecture): ethanol-fed rats; for liver histology (hepatic architecture): relative to vehicle
Excerpt: Chow fed control rats were also studied. Rats were monitored daily to ensure equivalent food consumption and maintenance of body weight. […] At the conclusion of the experiment, rats were anesthetized with vaporized isofluorane (SurgiVet, Inc. Waukesha, Wis.), and liver and blood were harvested for analysis. Liver tissue samples were immersion fixed in Histochoice (Amresco Corp., Solon, Ohio) and embedded in paraffin. Adjacent histological sections were stained with Hematoxylin and Eosin or Gomori's Trichrome and examined under code. In addition, liver tissue samples were snap-frozen in a dry ice methanol bath and then stored at −80° C. for later mRNA and protein studies. Throughout the experiment, rats were housed under humane conditions and kept on a 12-hour light/dark cycle with free access to food. All experiments were performed in accordance with protocols that conform to guidelines established by the National Institutes of Health and were approved by Institutional Animal Care and Use Committee at the Lifespan-Rhode Island Hospital.

[1] = tested on: Long-Evans male rats fed a 37% ethanol liquid diet; test: Liver regeneration by BrdU incorporation after 2/3 partial hepatectomy in chronic ethanol fed rats; settings: for increase in BrdU labeling: 24 hours after 2/3 hepatectomy, compared to ethanol fed animals; for liver regeneration (BrdU incorporation): after 2/3 hepatectomy
Experimental: An isocaloric (sucrose substituted for ethanol) diet was administered to pair fed control animals. After three weeks, both groups of rats were injected with either PPAR-α, γ, or δ agonists or saline as a control. […] The […] were given IP injections twice a week. At 6 weeks, the animals underwent 2/3 partial hepatectomy. The removed liver was used for histology, measurement of lipid peroxidation, DNA damage and insulin/IGF signaling as described below. Following ⅔ hepatectomy, the liver remnants were harvested 18, 24, 30 and 48 hours later to assess the regenerative response. To do this, animals were injected IP with BrdU 2 hours before harvest to measure its incorporation into hepatic nuclei as an index of DNA synthesis.

IGF-II receptor = test: Saturation binding assay in liver of treated rats, IGF-II receptor binding; settings: pooled liver of 8 rats
Excerpt: Adult male (˜200-250 g) Long Evans rats (Harlan Sprague Dawley, Inc., Indianapolis, Ind.) were pair-fed with isocaloric liquid diets (BioServ, Frenchtown, N.J.) containing 0% (control) or 37% ethanol by caloric content (9.2% v/v) for 8 weeks. During the week prior to initiating the experiment, rats were adapted to the ethanol-containing diets by sequentially feeding them for two days each with diets containing 8%, 17%, 24%, and then 37% ethanol. Chow fed control rats were also studied. Rats were monitored daily to ensure equivalent food consumption and maintenance of body weight. During the last 3 weeks of the experiment while being maintained on either the 0% or 37% ethanol-containing liquid diets, rats in both groups were administered twice weekly (Mondays and Thursdays) intra-peritoneal (i.p.) injections of vehicle (saline), a PPAR-α (GW7647; 25 μg/kg), PPAR δ (L-165,041; 2 μg/kg), or PPAR-γ (F-L-Leu; 20 μg/kg) agonist (CalBiochem, Carlsbad, Calif.). At the conclusion of the experiment, rats were anesthetized with vaporized isofluorane (SurgiVet, Inc. Waukesha, Wis.), and liver and blood were harvested for analysis. Liver tissue samples were immersion fixed in Histochoice (Amresco Corp., Solon, Ohio) and embedded in paraffin. Adjacent histological sections were stained with Hematoxylin and Eosin or Gomori's Trichrome and examined under code. In addition, liver tissue samples were snap-frozen in a dry ice methanol bath and then stored at −80° C. for later mRNA and protein studies. Throughout the experiment, rats were housed under humane conditions and kept on a 12-hour light/dark cycle with free access to food. All experiments were performed in accordance with protocols that conform to guidelines established by the National Institutes of Health and were approved by Institutional Animal Care and Use Committee at the Lifespan-Rhode Island Hospital.
Saturation binding studies were used to determine if the PPAR agonist treatments improved ethanol-impaired insulin and IGF receptor binding in liver. Fresh frozen liver tissue was homogenized in 5 volumes of lysis buffer containing 50 mM Tris-HCl, pH 7.5, 1% NP-40, 150 mM NaCl, 1 mM EDTA, 2 mM EGTA, plus protease (1 mM PMSF, 0.1 mM TPCK, 1 μg/ml aprotinin, 1 μg/ml pepstatin A, 0.5 μg/ml leupeptin, 1 mM NaF, 1 mM Na4P2O7) and phosphatase (2 mM Na3VO4) inhibitors. Protein concentration was determined using the bicinchoninic acid (BCA) assay (Pierce, Rockford, Ill.). Exploratory studies determined the optimum amounts of protein and concentrations of radiolabeled ligand required to achieve 20% specific binding. Insulin receptor binding was measured using 100 μg protein per assay tube. IGF-I binding assays required 25 μg protein per sample, and IGF-II receptor binding assays required 10 μg protein per reaction.
To generate the binding curse, samples from 8 rats per group were pooled in equivalent ratios and protein concentrations were adjusted to be identical for each group. For total binding, duplicate samples were incubated in 100 μl reactions containing binding buffer (100 mM HEPES, pH 8.0, 118 mM NaCl, 1.2 mM MgSO4, 8.8 mM dextrose, 5 mM KCl, 1% bovine serum albumin) and 0.0031 to 1 μCi/ml of [^125I] (2000 Ci/mmol) insulin, IGF-I, or IGF-II. For non-specific binding, duplicate samples were identically prepared but with the addition of 0.1 μM unlabeled (cold) ligand. Incubations were carried out for 16 hours at 4° C. in non-binding 96 well plates (Corning Incorporated Life Science, Lowell, Mass.). Reactions were vacuum harvested (Corning, Lowell, Mass.) onto 96-well GF/C filter plates that had been presoaked for 30 minutes in 0.33% polyethyleneimine (PEI) solution. The filters were washed 5 times with buffer containing 50 mM buffer [4-2-hydroxyethyl)-1-piperazine-ethanesulfonic acid (HEPES), pH 7.4, 500 mM NaCl, and 0.1% BSA. […]

| SMILES | liver histology (Long Evans rats; control rats, relative to vehicle-treated controls) | extents of micro- and macrosteatosis (Long Evans rats) | liver histology (hepatic architecture) (Long Evans rats) | increase in BrdU labeling [1] | liver regeneration (BrdU incorporation) [1] | BMAX ± S.E.M. (IGF-II receptor; Control + agonist) | BMAX ± S.E.M. (IGF-II receptor; Ethanol + agonist) |
| --- | --- | --- | --- | --- | --- | --- | --- |
| CC(C)(Sc1ccc(CCN(CCCCC2CCCCC2)C(=O)NC2CCCCC2)cc1)C(=O)O [PPAR-α, GW7647] | no detectable histological changes in liver; also recorded: no detectable effects on liver histology | overtly reduced | reduced the disordered architecture; also recorded: strikingly reduced the ethanol-associated architectural disarray and steatosis | approximately 20% | more modest beneficial effects | 40.27 ± 3.28 | 28.88 ± 6.20 |
| CC(C)C[C@H](NC(=O)OCC1c2ccccc2-c2ccccc21)C(=O)O [PPAR-γ, F-L-Leu] | – | overtly reduced | reduced the disordered architecture; also recorded: most striking improvements in liver histology; also recorded: strikingly reduced the ethanol-associated architectural disarray and steatosis; also recorded: more effective than the PPAR-α agonist in restoring hepatic architecture | approximately 20% | – | 25.20 ± 2.04 | 22.56 ± 4.43 |
| CCCc1c(OCCCOc2ccc(OCC(=O)O)cc2)ccc(C(C)=O)c1O [PPAR-δ, L-165,041] | – | overtly reduced | reduced the disordered architecture; also recorded: most striking improvements in liver histology; also recorded: strikingly reduced the ethanol-associated architectural disarray and steatosis; also recorded: more effective than the PPAR-α agonist in restoring hepatic architecture | – | essentially restored liver regeneration to levels seen in normal control animals; also recorded: returns the liver regenerative response to normal levels; also recorded: more modest beneficial effects | 29.01 ± 1.99 | 51.50 ± 13.53 |
